What was measured:
[1] = target: T1, IKKε (Homo sapiens, UniProt Q14164); assay: TR-FRET enzymatic activity assay, IKKε; assay type: biochemical; details: read-out: IKKϵ IC50; also: full length recombinant IKKε at 0.3 nM
T1 construct: TBK1 and IKKε were expressed and purified as full length recombinant proteins; made in house
T1 sequence (Q14164 1-716): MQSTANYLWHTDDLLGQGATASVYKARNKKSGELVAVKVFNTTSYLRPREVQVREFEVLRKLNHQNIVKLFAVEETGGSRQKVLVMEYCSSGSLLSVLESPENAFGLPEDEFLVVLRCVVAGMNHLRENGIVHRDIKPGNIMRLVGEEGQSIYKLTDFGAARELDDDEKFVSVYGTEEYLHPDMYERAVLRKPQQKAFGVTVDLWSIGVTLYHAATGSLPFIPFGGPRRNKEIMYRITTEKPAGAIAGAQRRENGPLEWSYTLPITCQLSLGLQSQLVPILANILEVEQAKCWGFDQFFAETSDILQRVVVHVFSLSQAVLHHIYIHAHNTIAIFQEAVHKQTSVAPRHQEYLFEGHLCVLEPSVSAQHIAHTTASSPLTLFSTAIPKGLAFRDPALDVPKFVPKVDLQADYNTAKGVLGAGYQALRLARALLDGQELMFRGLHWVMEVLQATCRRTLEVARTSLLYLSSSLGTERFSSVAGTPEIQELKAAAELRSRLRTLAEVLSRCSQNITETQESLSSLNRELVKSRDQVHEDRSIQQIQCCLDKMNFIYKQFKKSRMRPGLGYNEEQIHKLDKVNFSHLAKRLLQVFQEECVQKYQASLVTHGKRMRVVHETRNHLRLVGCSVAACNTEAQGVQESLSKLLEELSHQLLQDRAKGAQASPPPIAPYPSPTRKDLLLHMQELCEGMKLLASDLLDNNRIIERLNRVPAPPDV
In short: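 IC50 values are geometric means of at least four determinations, fitted to a four-parameter curve after normalising to 1 μM staurosporine and DMSO. Signal: Eu-cryptate anti-phospho antibody plus 125 nM streptavidin-XL665 on a biotinylated peptide. Full-length recombinant enzyme reacted 240 min, 25 °C, then EDTA-quenched.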

[2] = target: T2, TBK1 (Homo sapiens, UniProt Q9UHD2); assay: TR-FRET enzymatic activity assay, TBK1; assay type: biochemical; also: full length recombinant TBK1 at 2.5 nM
T2 construct: TBK1 and IKKε were expressed and purified as full length recombinant proteins; made in house
T2 sequence (Q9UHD2 1-729): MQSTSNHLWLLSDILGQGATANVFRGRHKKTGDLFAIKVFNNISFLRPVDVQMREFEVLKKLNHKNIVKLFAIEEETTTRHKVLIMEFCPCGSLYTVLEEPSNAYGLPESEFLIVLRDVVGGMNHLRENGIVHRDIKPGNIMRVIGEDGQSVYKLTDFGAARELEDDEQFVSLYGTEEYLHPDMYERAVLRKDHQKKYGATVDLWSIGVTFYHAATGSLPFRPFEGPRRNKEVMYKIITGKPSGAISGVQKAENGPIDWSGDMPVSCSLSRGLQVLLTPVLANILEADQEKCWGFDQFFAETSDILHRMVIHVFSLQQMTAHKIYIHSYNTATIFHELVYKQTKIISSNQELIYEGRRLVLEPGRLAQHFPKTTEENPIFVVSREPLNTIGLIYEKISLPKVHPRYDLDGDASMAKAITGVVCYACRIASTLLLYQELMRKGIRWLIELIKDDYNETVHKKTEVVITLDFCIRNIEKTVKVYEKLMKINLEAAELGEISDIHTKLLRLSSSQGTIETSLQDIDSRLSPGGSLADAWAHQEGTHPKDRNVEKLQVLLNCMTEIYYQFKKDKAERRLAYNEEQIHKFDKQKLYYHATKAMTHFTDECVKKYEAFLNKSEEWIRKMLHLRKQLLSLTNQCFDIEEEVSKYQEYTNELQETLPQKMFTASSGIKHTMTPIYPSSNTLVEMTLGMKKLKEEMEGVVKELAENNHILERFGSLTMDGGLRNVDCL
In short: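 TR-FRET detected phosphorylation of a biotinylated serine/threonine peptide using 125 nM streptavidin XL665 plus europium-labelled anti-phospho antibody. Reactions with full-length recombinant kinase ran 240 min at 25 °C before EDTA quench. Values are geometric-mean IC50s (n ≥ 4) from four-parameter dose-response fits against staurosporine and DMSO controls.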

SMILES	IC50 [1] [nM]	IC50 [2] [nM]
N#Cc1cc(-c2cc(NC(=O)C3CC3)ncc2F)ccc1OC1CCOCC1 [Example 4, N-(4-(3-cyano-4-((tetrahydro-2H-pyran-4-yl)oxy)phenyl)-5-fluoropyridin-2-yl)cyclopropanecarboxamide]	327	43.6
N#Cc1cc(-c2cc(NC(=O)C3CC3)ncn2)ccc1O[C@H]1CCN(C(=O)[C@@H]2CCC(=O)N2)CC1(F)F [Example 152, N-(6-(3-cyano-4-(((S)-3,3-difluoro-1-((S)-5-oxopyrrolidine-2-carbonyl)piperidin-4-yl)oxy)phenyl)pyrimidin-4-yl)cyclopropanecarboxamide]	53.3	9.4
Cn1cc(C2CC2C(=O)Nc2cc(-c3ccc(O[C@H]4CCN(C(=O)CO)C[C@H]4F)c(C#N)c3)ccn2)cn1 (stereo partly drawn) [Example 77, N-(4-(3-cyano-4-(((3R,4S)-3-fluoro-1-(2-hydroxyacetyl)piperidin-4-yl)oxy)phenyl)pyridin-2-yl)-2-(1-methyl-1H-pyrazol-4-yl)cyclopropane-1-carboxamide]	24.7	10.3
N#Cc1cc(-c2ccnc(NC(=O)[C@H]3[C@@H]4COC[C@@H]43)c2)ccc1OC1CCOCC1 [Example 118, (1R,5S,6R)—N-(4-(3-cyano-4-((tetrahydro-2H-pyran-4-yl)oxy)phenyl)pyridin-2-yl)-3-oxabicyclo[3.1.0]hexane-6-carboxamide]	632	871
N#Cc1cc(-c2ccnc(NC(=O)[C@@H]3C[C@H]3c3cccnc3)c2)ccc1O[C@H]1CCN(C(=O)CO)CC1(F)F [Example 134, (1,2-Trans)-N-(4-(3-cyano-4-(((S)-3,3-difluoro-1-(2-hydroxyacetyl)piperidin-4-yl)oxy)phenyl)pyridin-2-yl)-2-(pyridin-3-yl)cyclopropane-1-carboxamide]	10.9	7.4
N#Cc1cc(-c2ccnc(NC(=O)[C@@H]3C[C@H]3C#N)c2)ccc1OC1CCOCC1 (relative stereo) [Example 116, (1,2-Trans)-2-cyano-N-(4-(3-cyano-4-((tetrahydro-2H-pyran-4-yl)oxy)phenyl)pyridin-2-yl)cyclopropane-1-carboxamide]	471	181
N#Cc1cc(-c2ccnc(NC(=O)[C@@H]3C[C@H]3c3ccncc3)c2)ccc1OC1CCOCC1 (relative stereo) [Example 151, Trans-N-(4-(3-cyano-4-((tetrahydro-2H-pyran-4-yl)oxy)phenyl)pyridin-2-yl)-2-(pyridin-4-yl)cyclopropane-1-carboxamide]	200	75.6
N#Cc1cc(-c2ccnc(NC(=O)C3CC3)c2)ncc1O[C@H]1CCN(C(=O)CO)C[C@H]1F [Example 24, N-(4-cyano-5-(((3R,4S)-3-fluoro-1-(2-hydroxyacetyl)piperidin-4-yl)oxy)-[2,4′-bipyridin]-2′-yl)cyclopropanecarboxamide]	192	86.1
N#Cc1cc(-c2cc(NC(=O)C3CC3)ncn2)ccc1OC1CCN(C(=O)CO)CC1 [Example 23, N-(6-(3-cyano-4-((1-(2-hydroxyacetyl)piperidin-4-yl)oxy)phenyl)pyrimidin-4-yl)cyclopropanecarboxamide]	160	66.1
Cn1cc([C@@H]2C[C@H]2C(=O)Nc2cc(-c3ccc(O[C@H]4CCN(C(=O)CO)CC4(F)F)c(C#N)c3)ccn2)cn1 [Example 121, (1R,2R)—N-(4-(3-cyano-4-(((S)-3,3-difluoro-1-(2-hydroxyacetyl)piperidin-4-yl)oxy)phenyl)pyridin-2-yl)-2-(1-methyl-1H-pyrazol-4-yl)cyclopropane-1-carboxamide]	6.2	7.2
N#Cc1cc(-c2ccnc(NC(=O)C3(C#N)CC3)c2)ccc1O[C@H]1CCN(C(=O)CO)C[C@H]1F [Example 63, 1-Cyano-N-(4-(3-cyano-4-(((3R,4S)-3-fluoro-1-(2-hydroxyacetyl)piperidin-4-yl)oxy)phenyl)pyridin-2-yl)cyclopropane-1-carboxamide]	> 1000	> 1000
